Assay results from patent publication US20240201205A1, “METHOD FOR DETECTING NEUROLOGICAL DISEASES USING SUPRAMOLECULE POLYMER THERAPEUTICS” (The Regents of the University of California, priority 2022, published 2024).

Key:
[1] = test system: Alzheimer's disease tau paired-helical filaments (PHFs); assay: Cryo-EM co-structure of GTP-1 with Alzheimer's disease tau paired-helical filaments; assay type: binding, human; settings: AD patient filaments
Description: Samples were incubated with 20 uM GTP-1 prior to vitrification. […] The micrograph images and their 2D classification reveal well-resolved filaments primarily in the PHF conformation, with crossover distances ranging from 700-800 Å. A minor population of straight filaments (SF) was also identified; however, further structural characterization was not feasible due to limited abundance. […] The PHF structure is comprised of two protofilaments related by two-fold symmetry with a 2.37 Å rise and 179.45° twist, consistent with previously reported structures of PHFs prepared from AD brains (13, 15).
Tau PHF filament purification. Filament purification was based on Fitzpatrick et al., 2017^1. […]
Cryo-EM sample preparation and data collection. […] For the tau PHF, 3 μL of purified filaments mixed with GTP-1 was added to a glow-discharged 200 mesh 1.2/1.3R Au Quantifoil grid for 10 seconds before blotting for 2 seconds, and then a second 3 μL aliquot was added for 3 seconds and blotted for 1 second before being plunge frozen in liquid ethane using a FEI Vitrobot Mark IV (Thermo Fisher Scientific). For the synuclein ligands, 3 μL of purified filaments mixed with compound was added to a 200 mesh 1.2/1.3R Au Quantifoil grid coated with a 2 nm thick layer of carbon, which had not been glow discharged. […]

[2] = target: T1, α-synuclein fibrils isolated from an MSA patient sample (Homo sapiens, UniProt P37840); assay: Cryo-EM co-structures of compounds with α-synuclein fibrils from MSA patient; assay type: binding; settings: for binding to α-synuclein fibrils (cryo-EM co-structure): fibrils from MSA patient sample, 20 μM ligand
T1 construct: fresh-frozen tissue from the cerebellum of patients clinically and neuropathologically diagnosed with MSA; from tissue; host or cells: cerebellum of MSA patients (sarkosyl-insoluble filament preparation)
Description: MSA filament purification. Filament purification was based on Schweigenhauser et al., 2020^2. Briefly, 1-2 g of fresh-frozen tissue from the cerebellum of patients clinically and neuropathologically diagnosed with MSA was homogenized at 20 mL/g of tissue in 10 mM Tris-HCl (pH 7.4), 800 mM NaCl, 1 mM EGTA, and 10% sucrose. A final concentration of 1% N-laurosarcosinate (w/v) was added to the homogenates, and these mixtures were incubated at 37° C. for 30 minutes. Homogenates were then centrifuged at 10,000 g for 10 minutes, and the supernatant was kept and then centrifuged at 100,000 g for 20 minutes. The pellets were resuspended at 500 μL/g of frozen tissue in 10 mM Tris-HCl (pH 7.4), 800 mM NaCl, 1 mM EGTA, and 10% sucrose. This was followed by another centrifugation at 3,000 g for 5 minutes. The supernatant was kept and diluted threefold with 50 mM Tris-HCl (pH 7.4), 150 mM NaCl, 10% sucrose, and 2% sarkosyl, followed by another centrifugation at 150,000 g for 1 hour. The final pellet resuspended in 30 mM Tris-HCl (pH 7.4) at a concentration of 100 μL/g frozen tissue.
Cryo-EM sample preparation and data collection. Purified frontal cortex and cerebellum tissue was incubated with 20 μM ligand for 45 minutes prior to freezing. For the tau PHF, 3 μL of purified filaments mixed with GTP-1 was added to a glow-discharged 200 mesh 1.2/1.3R Au Quantifoil grid for 10 seconds before blotting for 2 seconds, and then a second 3 μL aliquot was added for 3 seconds and blotted for 1 second before being plunge frozen in liquid ethane using a FEI Vitrobot Mark IV (Thermo Fisher Scientific). For the synuclein ligands, 3 μL of purified filaments mixed with compound was added to a 200 mesh 1.2/1.3R Au Quantifoil grid coated with a 2 nm thick layer of carbon, which had not been glow discharged. After 30 seconds, grids were blotted for 7.5 seconds at room temperature and 100% humidity. Grids were plunge frozen in liquid ethane using a FEI Vitrobot Mark IV. […] A defocus range of 0.8 to 1.8 μm was used with a total exposure time of 2.024 seconds fractionated into 0.025 seconds subframes. The total dose for each movie was 46 electrons/Å^2. Movies were motion-corrected using MotionCor2^3 in Scipion^4 and were Fourier cropped by a factor of 2 to a final pixel size of 0.834 Å per pixel.
Image processing. All image processing was done in RELION 4^5, and the same workflow was used for each dataset. Dose-weighted summed micrographs were imported into RELION 4. The contrast transfer function was estimated using CTFFIND-4.1^6. Filaments were manually picked and then segments were extracted with a box size of 900 pixels downscaled to 300 pixels. Contaminants and segments contributing to straight filaments were separated out using reference-free 2D class averaging. The remaining segments were re-extracted with a box size of 288 pixels without downscaling. An initial model was generated from a cylinder in RELION. One or more rounds of 3D classification with image alignment were performed, with helical rise and […] parameters fixed to eliminate obvious junk particles. One or more rounds of 3D auto-refinement was run using the best map from 3D classification low-pass filtered to 10 Å, allowing rise and twist parameters to vary. Maps were sharpened using the standard post-processing procedures in RELION.
Model building, refinement, and analysis. Prior to ligand placement, a single strand of a previously solved MSA or tau PHF filament structure^2 (PDB: 6XYQ) was refined against the density using Phenix^7. Refinement of the ligand binding pocket was done in COOT^8. Ligands were placed by hand in the density using Chimera^9. This model was then translated to give a stack spanning 5 rungs.

binding site on α-synuclein ([2]; cryo-EM, residues of SEQ ID NO: 9)	Compound	binding site on tau PHF [1]	binding to α-synuclein fibrils (cryo-EM co-structure) [2]
	FCCC1CCN(c2ccn3c(n2)nc2ccccc23)CC1 [GTP-1]	bound to a solvent exposed cleft (residues 351-360)	
bound to residues 86-99 of α-synuclein	CNC(=O)c1ncc2c(-c3ccnc(C(C)(F)F)n3)nn(-c3ccc(Cl)cc3)c2n1 [Compound 22, 1-(4-chlorophenyl)-3-(2-(1,1-difluoroethyl)pyrimidin-4-yl)-N-methyl-1H-pyrazolo[3,4-d]pyrimidine-6-carboxamide]		bound to fibrils isolated from an MSA patient sample
	CNc1nc(=O)n(-c2nc(-c3cccc(C)c3)oc2-c2ccc(Cl)c(F)c2)cc1F [Compound 83, 1-(5-(4-chloro-3-fluorophenyl)-2-(m-tolyl)oxazol-4-yl)-5-fluoro-4-(methylamino)pyrimidin-2(1H)-one]		bound to fibrils isolated from an MSA patient sample
